Laboratory results reported in US7754751B2, “Preferential inhibition of release of pro-inflammatory cytokines” (Yung Shin Pharmaceutical Ind. Co., Ltd., priority 2004, dated 2010).

Assays:
interleukin-2 = assay: LPS-induced interleukin-2 release in human PBMC; assay type: cell-based; settings: 10 μM compound with LPS 25 μg/ml, 24 h
Protocol: (§1) Approximately 450 ml of blood was obtained from healthy human volunteers and diluted with RPMI 1640 culture medium. A Ficoll gradient (MSL; Eurobio, les Ulis, France) was used to isolate human peripheral blood mononuclear leukocytes (PBMC). The volume ratio of blood, RPMI 1640 culture medium, and MSL was 2:4:1. PBMC were obtained by centrifuging the diluted blood at 500 g at 15° C. for 20 min and washed once with RPMI 1640. The cell pellets were resuspended at a final concentration of 6×10^6 cells/ml of the same medium supplemented with 5% heat-inactivated normal human serum (a pool of sera from healthy volunteers) and antibiotics (penicillin 100 UI/ml and streptomycin 100 μg/ml). Aliquots of 500 μl of the cell suspension were dispensed into each well of a 24-well plate and incubated at 37° C. in a 5% CO2-95% air incubator in a humidified atmosphere. To wells were added lipopolysaccharide (LPS, 25 μg/ml) from smooth E. Coli 0111:B4 alone or LPS and Compound 1 (10 μM) together. After 24 h, the supernatants were collected, centrifuged at 400 g for 10 min at 15° C. and stored at −20° C. Cytokines were assayed using commercial kits manufactured by R & D Systems (Abingdon, UK). The concentrations of the cytokines were determined using an internal standard according to the manufacturer's instructions.

interferon-γ = assay: LPS-induced interferon-γ release in human PBMC; assay type: cell-based; settings: 10 μM compound with LPS 25 μg/ml, 24 h
Protocol: as §1

NF-κB = NF-κB DNA binding activity in tissue nuclear extracts of LPS-treated mice (EMSA, ELISA-based Trans-AM p65 kit); assay type: in vivo; settings: ICR mice, LPS 60 mg/kg i.p., compound 10 mg/kg orally in 0.5% carboxymethyl cellulose; lung, spleen, kidney extracts
Protocol: Mice (25-30 g, ICR strain) were injected intraperitoneally with LPS (60 mg/kg). Most of them were orally treated with Compound 1 (10 mg/kg) in 0.5% carboxymethyl cellulose, and the rest (control mice) were orally treated with vehicle. The control mice died within 27 h after the LPS administration. The mice were euthanatized with intraperitoneal administration of pentobarbital at various time intervals after the LPS administration. Nuclear extracts of lung, spleen, and kidney tissues were prepared by a standard method. NF-κB DNA binding activity was assessed by an electrophoretic mobility shift assay according to a procedure described in Pan et al., J Biomed Sci. 2002, 9: 622-630. […] The sample was then charged to native 5% polyacrylamide gels and analyzed by autoradiography. […] NF-κB DNA binding activity was also assessed with ELISA-based Trans-AM NF-κB p65 transcription factor assay kits (Active Motif Europe, […], Belgium) according to the manufacturer's instructions. […] Specificity of NF-κB activation was determined by competition experiments using NF-κB wild-type and mutant consensus oligonucleotides that were provided with the kit.

TNF-α = assay: LPS-induced TNF-α release in human PBMC; assay type: cell-based; settings: 10 μM compound with LPS 25 μg/ml, 24 h
Protocol: as §1

interleukin 8 = assay: LPS-induced interleukin 8 release in human PBMC; assay type: cell-based; settings: 10 μM compound with LPS 25 μg/ml, 24 h
Protocol: as §1

interleukin-4 = assay: LPS-induced interleukin-4 release in human PBMC; assay type: cell-based; settings: 10 μM compound with LPS 25 μg/ml, 24 h
Protocol: as §1

interleukin 1β = assay: LPS-induced interleukin 1β release in human PBMC; assay type: cell-based; settings: 10 μM compound with LPS 25 μg/ml, 24 h
Protocol: as §1

interleukin-10 = assay: LPS-induced interleukin-10 release in human PBMC; assay type: cell-based; settings: 10 μM compound with LPS 25 μg/ml, 24 h
Protocol: as §1

## OCc1ccc(-c2nn(Cc3ccccc3)c3ccccc23)o1 [Compound 1, 3-(5′-hydroxymethyl-2′-furyl)-1-benzyl-indazol]
interleukin-2
  inhibition at 10 µM: > 30%
interferon-γ
  inhibition at 10 µM: > 30%
NF-κB
  NF-κB/DNA complex level induced by LPS: inhibited the increase of the NF-κB/DNA complex level induced by LPS
TNF-α
  inhibition at 10 µM: > 80%
Interleukin 8
  inhibition at 10 µM: > 80%
interleukin-4
  inhibition at 10 µM: < 10%
Interleukin 1β
  inhibition at 10 µM: > 80%
interleukin-10
  inhibition at 10 µM: < 10%
